Test results reported in patent publication US10081662B2, “Modified relaxin B chain peptides” (The Florey Institute of Neuroscience and Mental Health, priority 2014, dated 2018).
Square brackets hold non-standard residues; d marks the D form. Peptide text beside a SMILES is read from it. hArg = N=C(N)NCCCC[C@H](N)C(=O)O; Agb = N=C(N)NCC[C@H](N)C(=O)O

How the values were obtained:
RXFP1 [1] = biological target: T1, RXFP1 (Homo sapiens, UniProt Q9HBX9); test: cAMP reporter gene assay (pCRE β-galactosidase) in HEK-293T cells transfected with RXFP1; type: cell-based; conditions: HEK-293T cells co-transfected with RXFP1 and pCRE β-galactosidase reporter; n ≥ 3; read-out: RXFP1 cAMP pEC50 (converted)
T1 construct: expressed in transfected cells; host or cells: HEK-293T
T1 sequence (Q9HBX9 1-757): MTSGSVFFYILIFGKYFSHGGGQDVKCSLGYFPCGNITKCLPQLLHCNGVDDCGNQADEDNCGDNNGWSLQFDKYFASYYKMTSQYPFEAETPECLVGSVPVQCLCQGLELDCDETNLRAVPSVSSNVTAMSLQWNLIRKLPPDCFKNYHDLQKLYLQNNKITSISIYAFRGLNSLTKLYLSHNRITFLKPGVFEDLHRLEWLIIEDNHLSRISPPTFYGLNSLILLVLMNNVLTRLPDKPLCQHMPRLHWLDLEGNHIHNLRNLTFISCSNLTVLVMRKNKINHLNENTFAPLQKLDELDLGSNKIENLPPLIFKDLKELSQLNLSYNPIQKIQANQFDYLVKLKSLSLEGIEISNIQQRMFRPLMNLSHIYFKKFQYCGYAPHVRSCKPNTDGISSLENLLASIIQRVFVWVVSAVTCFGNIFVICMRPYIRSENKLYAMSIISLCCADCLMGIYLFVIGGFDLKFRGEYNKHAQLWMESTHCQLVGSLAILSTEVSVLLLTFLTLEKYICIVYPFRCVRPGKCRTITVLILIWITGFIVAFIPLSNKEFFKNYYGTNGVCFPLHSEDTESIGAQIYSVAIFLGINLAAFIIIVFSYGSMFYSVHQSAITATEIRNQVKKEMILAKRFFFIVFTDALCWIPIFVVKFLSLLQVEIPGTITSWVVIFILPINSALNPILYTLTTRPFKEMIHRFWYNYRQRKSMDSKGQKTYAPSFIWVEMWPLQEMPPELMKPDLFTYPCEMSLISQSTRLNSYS
Experimental: The ability of the relaxin-2 B chain peptide derivatives generated in Example 1 to stimulate cAMP response was also evaluated, using a cAMP reporter gene assay as described previously (Scott et al., 2006, J Biol Chem. 281, 34942-34954). HEK-293T cells co-transfected with either RXFP1 or RXFP2, or 7BP cells, and a pCRE β-galactosidase reporter plasmid were plated in 96-well plates. After 24 hours, the co-transfected cells were incubated with increasing concentrations of peptides in parallel to 10 nM of H2 relaxin or INSL3 for RXFP1- or RXFP2-transfected cells respectively. The amount of cAMP-driven β-galactosidase expression in each well was assessed with a colorimetric assay measuring absorbance at 570 nm on a microplate spectrophotometer. Ligand-induced cAMP stimulation was expressed as a percentage of maximal response of H2 relaxin or INSL3 for RXFP1 and RXFP2 cells respectively. Each data point was measured in triplicate and each experiment conducted independently at least three separate times. Statistical differences in pEC50 values were analyzed using one-way ANOVA coupled to Newman Keul's multiple comparison test for multiple group comparisons in GraphPad Prism 6.

RXFP1 [2] = biological target: T1, RXFP1; test: Eu-labelled H2 relaxin competition binding, whole HEK-293T cells stably transfected with RXFP1; conditions: HEK-293T cells stably transfected with RXFP1; competition with Eu-labelled H2 relaxin; mean ± S.E; n ≥ 3; read-out: RXFP1 Eu-H2 pKi (converted)
Experimental: Human embryonic kidney (HEK-293T) cells stably transfected with RXFP1 were cultured in RPMI 1640 medium supplemented with 10% fetal calf serum, 100 μg/ml penicillin, 100 μg/ml streptomycin and 2 mM L-glutamine and plated into 96-well pre-coated with poly-L-lysine for whole cell binding assays. Competition binding experiments were conducted with Eu^3+-labelled H2 relaxin (as per Shabanpoor et al., 2012, Biochem Biophys Res Commun. 420, 253-256) in the absence or presence of increasing concentrations of unlabelled relaxin-2 B chain derivatives. Nonspecific binding was determined with an excess of unlabelled peptides (500 nM H2 relaxin). Fluorescent measurements were recorded at an excitation wavelength of 340 nm and emission of 614 nm on a Victor plate reader (Perkin-Elmer Inc.). […] Statistical differences in pIC50 values were analyzed using one-way analysis of variance coupled to Newman Keul's multiple comparison test for multiple group comparisons in GraphPad Prism 6.

[3] = biological target: T2, fusion protein comprising the extracellular domain of RXFP1 and the transmembrane domain of CD8 (7BP cells) (Homo sapiens, UniProt Q9HBX9); test: Eu-labelled H2 relaxin competition binding to 7BP cells; conditions: 7BP cells; lower affinity than H2 relaxin; FIG. 2B
T2 construct: the extracellular domain of RXFP1 and the transmembrane domain of CD8; expressed in transfected cells
T2 sequence (Q9HBX9 1-409 limits assumed): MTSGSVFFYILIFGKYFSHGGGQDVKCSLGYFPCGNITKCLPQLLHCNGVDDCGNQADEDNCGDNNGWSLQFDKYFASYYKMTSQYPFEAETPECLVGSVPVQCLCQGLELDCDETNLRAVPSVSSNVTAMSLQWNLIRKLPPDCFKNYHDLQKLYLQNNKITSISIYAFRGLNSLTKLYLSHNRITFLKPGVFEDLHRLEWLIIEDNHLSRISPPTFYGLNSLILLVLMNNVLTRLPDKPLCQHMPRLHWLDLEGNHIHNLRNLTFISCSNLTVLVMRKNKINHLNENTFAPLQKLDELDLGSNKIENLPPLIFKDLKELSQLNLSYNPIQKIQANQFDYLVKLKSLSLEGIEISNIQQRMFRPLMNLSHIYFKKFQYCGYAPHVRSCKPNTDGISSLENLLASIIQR

Compound	EC50 (RXFP1 [1]) [µM]	Ki (RXFP1 [2]) [µM]	Binding to 7BP cells (in words) [3]
CC[C@H](C)[C@H](NC(=O)[C@H](C)NC(=O)[C@@H](NC(=O)[C@H](CCC(N)=O)NC(=O)[C@H](C)NC(=O)[C@H](CCCNC(=N)N)NC(=O)[C@@H](NC(=O)[C@H](CC(C)C)NC(=O)[C@H](CCC(=O)O)NC(=O)[C@H](CCCNC(=N)N)NC(=O)CNC(=O)[C@H](CO)NC(=O)[C@H](CC(C)C)NC(=O)[C@H](CCCCN)NC(=O)[C@@H](NC(=O)[C@@H](NC(=O)[C@H](CCC(=O)O)NC(=O)[C@H](CCC(=O)O)NC(=O)[C@H](CCSC)NC(=O)[C@H](Cc1c[nH]c2ccccc12)NC(=O)[C@H](CO)NC(=O)[C@@H](N)CC(=O)O)C(C)C)[C@@H](C)CC)C(C)C)[C@@H](C)CC)C(=O)N[C@@H](CO)C(=O)NCC(=O)N[C@@H](CCSC)C(=O)N[C@@H](CO)C(=O)N[C@H](C(=O)N[C@@H](Cc1c[nH]c2ccccc12)C(=O)N[C@@H](CO)C(=O)N[C@@H](CCCCN)C(=O)N[C@@H](CCCNC(=N)N)C(=O)N[C@@H](CO)C(=O)N[C@@H](CC(C)C)C(N)=O)[C@@H](C)O [B1-33 C11.23S] (H-DSWMEEVIKLSGRELVRAQIAISGMSTWSKRSL-NH2)	7.94	4.68	
CC[C@H](C)[C@H](NC(=O)[C@H](C)NC(=O)[C@@H](NC(=O)[C@H](CCC(N)=O)NC(=O)[C@H](C)NC(=O)[C@H](CCCNC(=N)N)NC(=O)[C@@H](NC(=O)[C@H](CC(C)C)NC(=O)[C@H](CCC(=O)O)NC(=O)[C@H](CCCNC(=N)N)NC(=O)CNC(=O)[C@H](CO)NC(=O)[C@H](CC(C)C)NC(=O)[C@H](CCCCN)NC(=O)[C@@H](NC(=O)[C@@H](N)C(C)C)[C@@H](C)CC)C(C)C)[C@@H](C)CC)C(=O)N[C@@H](CO)C(=O)NCC(=O)N[C@@H](CCSC)C(=O)N[C@@H](CO)C(=O)N[C@H](C(=O)N[C@@H](Cc1c[nH]c2ccccc12)C(=O)N[C@@H](CO)C(N)=O)[C@@H](C)O [B7-29 C11.23S] (H-VIKLSGRELVRAQIAISGMSTWS-NH2; N-terminus assumed)	> 10	> 10	
CC[C@H](C)[C@H](NC(=O)[C@H](C)NC(=O)[C@@H](NC(=O)[C@H](CCC(N)=O)NC(=O)[C@H](C)NC(=O)[C@H](CCCCN)NC(=O)[C@@H](NC(=O)[C@H](CC(C)C)NC(=O)[C@H](CCC(=O)O)NC(=O)[C@H](CCCNC(=N)N)NC(=O)CNC(=O)[C@H](CO)NC(=O)[C@H](CC(C)C)NC(=O)[C@H](CCCCN)NC(=O)[C@@H](NC(=O)[C@@H](N)C(C)C)[C@@H](C)CC)C(C)C)[C@@H](C)CC)C(=O)N[C@@H](CO)C(=O)NCC(=O)N[C@@H](CCSC)C(=O)N[C@@H](CO)C(=O)N[C@H](C(=O)N[C@@H](Cc1c[nH]c2ccccc12)C(=O)N[C@@H](CO)C(=O)N[C@@H](CCCCN)C(=O)N[C@@H](CCCNC(=N)N)C(=O)N[C@@H](CO)C(=O)N[C@@H](CC(C)C)C(N)=O)[C@@H](C)O [B7-33 C11.23S R17K] (H-VIKLSGRELVKAQIAISGMSTWSKRSL-NH2; N-terminus assumed)	> 10	> 10	
CC[C@H](C)[C@H](NC(=O)[C@H](C)NC(=O)[C@H](C)NC(=O)[C@H](CCC(N)=O)NC(=O)[C@H](C)NC(=O)[C@H](CCCNC(=N)N)NC(=O)[C@@H](NC(=O)[C@H](CC(C)C)NC(=O)[C@H](CCC(=O)O)NC(=O)[C@H](CCCNC(=N)N)NC(=O)CNC(=O)[C@H](CO)NC(=O)[C@H](CC(C)C)NC(=O)[C@H](CCCCN)NC(=O)[C@@H](NC(=O)[C@@H](NC(C)=O)C(C)C)[C@@H](C)CC)C(C)C)C(=O)N[C@@H](CO)C(=O)NCC(=O)N[C@@H](CCSC)C(=O)N[C@@H](CO)C(=O)N[C@H](C(=O)N[C@@H](Cc1c[nH]c2ccccc12)C(=O)N[C@@H](CO)C(=O)N[C@@H](CCCCN)C(=O)N[C@@H](CCCNC(=N)N)C(=O)N[C@@H](CO)C(=O)N[C@@H](CC(C)C)C(N)=O)[C@@H](C)O [R20A (AcB7-33 C11.23S)] (Ac-VIKLSGRELVRAQAAISGMSTWSKRSL-NH2)	> 10	> 10	

The remaining lines, values ahead:

EC50 (RXFP1 [1]) [µM]	Ki (RXFP1 [2]) [µM]	Binding to 7BP cells (in words) [3]	Compound
> 10	0.302		CC[C@H](C)[C@H](NC(=O)[C@H](C)NC(=O)[C@@H](NC(=O)[C@H](CCC(N)=O)NC(=O)[C@H](C)NC(=O)[C@H](CCCCNC(=N)N)NC(=O)[C@@H](NC(=O)[C@H](CC(C)C)NC(=O)[C@H](CCC(=O)O)NC(=O)[C@H](CCCNC(=N)N)NC(=O)CNC(=O)[C@H](CO)NC(=O)[C@H](CC(C)C)NC(=O)[C@H](CCCCN)NC(=O)[C@@H](NC(=O)[C@@H](N)C(C)C)[C@@H](C)CC)C(C)C)[C@@H](C)CC)C(=O)N[C@@H](CO)C(=O)NCC(=O)N[C@@H](CCSC)C(=O)N[C@@H](CO)C(=O)N[C@H](C(=O)N[C@@H](Cc1c[nH]c2ccccc12)C(=O)N[C@@H](CO)C(=O)N[C@@H](CCCCN)C(=O)N[C@@H](CCCNC(=N)N)C(=O)N[C@@H](CO)C(=O)N[C@@H](CC(C)C)C(N)=O)[C@@H](C)O [B7-33 C11.23S R17HR] (H-VIKLSGRELV[hArg]AQIAISGMSTWSKRSL-NH2)
1.55	> 10		CC[C@H](C)[C@H](NC(=O)[C@H](C)NC(=O)[C@@H](NC(=O)[C@H](CCC(N)=O)NC(=O)[C@H](C)NC(=O)[C@H](CCNC(=N)N)NC(=O)[C@@H](NC(=O)[C@H](CC(C)C)NC(=O)[C@H](CCC(=O)O)NC(=O)[C@H](CCCNC(=N)N)NC(=O)CNC(=O)[C@H](CO)NC(=O)[C@H](CC(C)C)NC(=O)[C@H](CCCCN)NC(=O)[C@@H](NC(=O)[C@@H](N)C(C)C)[C@@H](C)CC)C(C)C)[C@@H](C)CC)C(=O)N[C@@H](CO)C(=O)NCC(=O)N[C@@H](CCSC)C(=O)N[C@@H](CO)C(=O)N[C@H](C(=O)N[C@@H](Cc1c[nH]c2ccccc12)C(=O)N[C@@H](CO)C(=O)N[C@@H](CCCCN)C(=O)N[C@@H](CCCNC(=N)N)C(=O)N[C@@H](CO)C(=O)N[C@@H](CC(C)C)C(N)=O)[C@@H](C)O [B7-33 C11.23S R17NR] (H-VIKLSGRELV[Agb]AQIAISGMSTWSKRSL-NH2)
		strongly bind to 7BP cells	VIKLCGRELVRAQIAICGMSTWSKRSL-NH2 [Native B7-33]
